Results published in patent US20110009496A1, “RESVERATROL FORMULATIONS” (SIRTRIS PHARMACEUTICAS, INC., priority 2008, published 2011).

What was measured:
HDAC = conditions: in vitro or in vivo; cited from earlier work
[1] = target: cytochrome oxidase (Complex IV) (Homo sapiens, UniProt P00395); conditions: cited from earlier work
Sir2 = Sir2 (Saccharomyces cerevisiae, UniProt P06700); conditions: cited from earlier work
retinal ganglion cells = conditions: treated animals; cited from earlier work
mammalian cells = conditions: cited from earlier work
[2] = Dilution of liquid resveratrol formulations with purified water (precipitation); format: physicochemical; conditions: DS dissolved in Gelucire 44/14 at 100 mg/g
Procedure: A liquid formulation was prepared by dissolving resveratrol (drug substance, DS) and monoacyl phospholipid in a mixture of PEG 300 and propyleneglycol. The ratio between the DS and phospholipid was 1/12 w/w in PEG 300/propyleneglycol 1/1 w/was solvent mixture. The formulation, which has a 5% drug load, was clear after dilution in purified water for more than 4 hours. Starting from Formulation 13, the drug load was increased to 10% using the same 1/1 w/w ratio of Vit E TPGS/DS and replacing propyleneglycol with Labrasol™. Upon one-fold dilution with water a slight DS precipitation was observed. […] After a few hours, some oil droplets were visible on the surface of the water phase. To further improve Formulation 11, the use of the two lipids Gelucire™ 44/14 and Labrasol™ were explored as main components in the formulations. […] The DS precipitated in the form of oil-like droplets. […] Higher drug loads can be achieved by using the two lipids in combination with ethanol as additional solvent/excipient to fully solubilize the drug in the formulation.

insulin resistant cells = conditions: cited from earlier work
C. elegans = conditions: in vivo; cited from earlier work
[3] = topical; cited from earlier work

Sir2, sequence (P06700 whole entry): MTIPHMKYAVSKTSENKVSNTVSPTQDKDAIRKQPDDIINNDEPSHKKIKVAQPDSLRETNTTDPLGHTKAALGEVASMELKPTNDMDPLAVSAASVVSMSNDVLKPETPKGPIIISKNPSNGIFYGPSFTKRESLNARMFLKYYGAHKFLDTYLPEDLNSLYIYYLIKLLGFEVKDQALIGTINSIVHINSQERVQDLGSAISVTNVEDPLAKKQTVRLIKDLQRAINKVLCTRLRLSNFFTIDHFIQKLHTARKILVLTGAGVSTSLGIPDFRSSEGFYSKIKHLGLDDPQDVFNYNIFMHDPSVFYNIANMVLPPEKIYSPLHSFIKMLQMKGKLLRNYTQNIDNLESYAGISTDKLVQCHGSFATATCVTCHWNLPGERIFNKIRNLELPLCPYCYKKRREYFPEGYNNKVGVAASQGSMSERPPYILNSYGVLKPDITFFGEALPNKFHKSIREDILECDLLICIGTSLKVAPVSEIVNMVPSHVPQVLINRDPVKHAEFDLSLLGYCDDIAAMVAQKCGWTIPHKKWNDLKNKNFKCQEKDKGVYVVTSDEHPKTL

Molecule: O=C(/C=C/c1cccc(C(=O)NO)c1)NO [CBHA, m-carboxy-cinnamic acid bishydroxamic acid]
- inhibition of HDAC (concentration level in words) (HDAC): micromolar concentration or lower

Molecule: C/C=C1\NC(=O)[C@H]2CSSCC/C=C/[C@H](CC(=O)N[C@H](C(C)C)C(=O)N2)OC(=O)[C@H](C(C)C)NC1=O [Depsipeptide, depsipeptide]
- inhibition of HDAC (concentration level in words) (HDAC): micromolar concentrations

Molecule: [N]=O [Nitric oxide]
- concentration that inhibits cytochrome oxidase (Complex IV) [1]: about 1 micromolar

Molecule: CC(/C=C/C(=O)NO)=C\[C@@H](C)C(=O)c1ccc(N(C)C)cc1 [TSA, trichostatin A]
- sensitivity of Sir2 to histone deacetylase inhibitors (Sir2): insensitive
- inhibition of HDAC (concentration level in words) (HDAC): potent inhibitor

Molecule: N=C(N)NN [aminoguanidine]
- loss of retinal ganglion cells (retinal ganglion cells): reduction in the loss of retinal ganglion cells

Molecule: Oc1ccc(/C=C/c2cc(O)cc(O)c2)cc1 [resveratrol, 3,5,4′-trihydroxystilbene]
- adipogenesis in mammalian cells (mammalian cells): inhibit adipogenesis
- fat mobilization in mammalian cells (mammalian cells): stimulate fat mobilization
- precipitation after dilution with purified water [2]: precipitated in a fast manner
- insulin sensitivity in insulin resistant cells (insulin resistant cells): at least partially restore insulin sensitivity
- fat accumulation in C. elegans (C. elegans): prevent fat accumulation
- fat mobilization in C. elegans (C. elegans): promotes fat mobilization

Molecule: CC(C)(C)NC[C@H](O)COc1nsnc1N1CCOCC1 [timolol]
- time for IOP to fall [3]: 30 min
- time of peak effects on IOP [3]: 1 to 2 h

Molecule: depudecin
- inhibition of HDAC (concentration level in words) (HDAC): micromolar concentrations
